The CheMixHub viscosity set

Experiment: xn = mol fraction of the nth substance listed

CCCCCCO + CCO
Details | viscosity [mPa·s]
298.15 K, 101.33 kPa, x2 = 0.1094 | 4.001
298.15 K, 101.33 kPa, x2 = 0.2099 | 3.537
298.15 K, 101.33 kPa, x2 = 0.3973 | 2.828
298.15 K, 101.33 kPa, x2 = 0.5015 | 2.484
298.15 K, 101.33 kPa, x2 = 0.5903 | 2.214
298.15 K, 101.33 kPa, x2 = 0.6925 | 1.894
298.15 K, 101.33 kPa, x2 = 0.8012 | 1.574
298.15 K, 101.33 kPa, x2 = 0.899 | 1.305
303.15 K, 101 kPa, x2 = 0.1433 | 3.364
303.15 K, 101 kPa, x2 = 0.2814 | 2.887
303.15 K, 101 kPa, x2 = 0.487 | 2.241
303.15 K, 101 kPa, x2 = 0.6448 | 1.807
303.15 K, 101 kPa, x2 = 0.7691 | 1.509
303.15 K, 101 kPa, x2 = 0.8692 | 1.28
303.15 K, 101 kPa, x2 = 0.9524 | 1.093

CCOCC + CCO
298.15 K, 101 kPa
Details | viscosity [mPa·s]
x1 = 0.1577 | 0.741
x1 = 0.3593 | 0.478
x1 = 0.4569 | 0.4
x1 = 0.5301 | 0.359
x1 = 0.6268 | 0.315
x1 = 0.6925 | 0.29
x1 = 0.7978 | 0.264

CCS + CCO
298.15 K, 101 kPa
Details | viscosity [mPa·s]
x1 = 0.026 | 1.048
x1 = 0.072 | 0.9731
x1 = 0.0942 | 0.9305
x1 = 0.1067 | 0.8559
x1 = 0.1258 | 0.8385
x1 = 0.2634 | 0.6525
x1 = 0.2941 | 0.6119
x1 = 0.3753 | 0.5821
x1 = 0.6123 | 0.4083

O=C1CCCCC1 + CCOC(=O)OCC
viscosity [mPa·s], 101 kPa
Details | x2 = 0.0898 | x2 = 0.1505 | x2 = 0.2556 | x2 = 0.3587 | x2 = 0.4619 | x2 = 0.5665 | x2 = 0.6701 | x2 = 0.7601 | x2 = 0.8945 | x2 = 0.9487
303.15 K | 1.626 | 1.498 | 1.321 | 1.156 | 1.028 | 0.911 | 0.825 | 0.768 | 0.719 | 0.708
308.15 K | 1.479 | 1.37 | 1.202 | 1.056 | 0.937 | 0.837 | 0.759 | 0.711 | 0.669 | 0.658
313.15 K | 1.375 | 1.274 | 1.116 | 0.981 | 0.873 | 0.784 | 0.714 | 0.668 | 0.626 | 0.617

CC(=O)CC(C)C + CCOCCO
298.15 K, 101.33 kPa
Details | viscosity [mPa·s]
x1 = 0.1481 | 1.043
x1 = 0.2727 | 0.943
x1 = 0.3972 | 0.854
x1 = 0.511 | 0.782
x1 = 0.6235 | 0.718
x1 = 0.7252 | 0.664
x1 = 0.824 | 0.617
x1 = 0.8892 | 0.588

CCC(C)N (stereo not given) + CCOCCO
308.15 K, 101 kPa
Details | viscosity [mPa·s]
x2 = 0.1045 | 0.5211
x2 = 0.208 | 0.6419
x2 = 0.3105 | 0.7668
x2 = 0.412 | 0.8957
x2 = 0.5124 | 1.016
x2 = 0.6188 | 1.13
x2 = 0.7103 | 1.217
x2 = 0.8078 | 1.304
x2 = 0.9043 | 1.385

CCCCCCO + CN1CCCC1=O
viscosity [mPa·s], 100 kPa
Details | x1 = 0.1042 | x1 = 0.2 | x1 = 0.302 | x1 = 0.3995 | x1 = 0.4998 | x1 = 0.5996 | x1 = 0.6992 | x1 = 0.7985 | x1 = 0.8981 | x1 = 0.9469
293.15 K | 1.95 | 2.073 | 2.222 | 2.385 | 2.581 | 2.824 | 3.148 | 3.595 | 4.278 | 4.729
298.15 K | 1.786 | 1.894 | 2.02 | 2.157 | 2.321 | 2.521 | 2.791 | 3.158 | 3.711 | 4.048
303.15 K | 1.645 | 1.739 | 1.845 | 1.961 | 2.099 | 2.266 | 2.49 | 2.791 | 3.24 | 3.53
308.15 K | 1.522 | 1.603 | 1.693 | 1.791 | 1.907 | 2.046 | 2.233 | 2.481 | 2.844 | 3.083
313.15 K | 1.412 | 1.483 | 1.56 | 1.643 | 1.741 | 1.857 | 2.012 | 2.217 | 2.51 | 2.708
318.15 K | 1.315 | 1.377 | 1.442 | 1.513 | 1.595 | 1.692 | 1.822 | 1.991 | 2.226 | 2.387

CCCCCCO + CO
298.15 K, 101.33 kPa
Details | viscosity [mPa·s]
x2 = 0.1054 | 3.881
x2 = 0.2016 | 3.351
x2 = 0.3144 | 2.778
x2 = 0.4093 | 2.348
x2 = 0.5053 | 1.968
x2 = 0.6027 | 1.615
x2 = 0.7094 | 1.278
x2 = 0.8038 | 1.001
x2 = 0.9022 | 0.7601

CCOCC + CO
101 kPa
Details | viscosity [mPa·s]
298.15 K, x1 = 0.115 | 0.4734
298.15 K, x1 = 0.1893 | 0.4296
298.15 K, x1 = 0.2803 | 0.3846
298.15 K, x1 = 0.3957 | 0.3378
298.15 K, x1 = 0.5399 | 0.2953
298.15 K, x1 = 0.7319 | 0.2553
303.16 K, x1 = 0.04 | 0.4893
303.16 K, x1 = 0.09 | 0.4472
303.16 K, x1 = 0.13 | 0.4312
303.16 K, x1 = 0.2 | 0.3881
303.16 K, x1 = 0.27 | 0.3392
303.16 K, x1 = 0.37 | 0.2921
303.16 K, x1 = 0.51 | 0.2772
303.16 K, x1 = 0.67 | 0.2511
303.16 K, x1 = 0.85 | 0.2328

CC(C)CC(C)(C)C + COC(=O)OC
viscosity [mPa·s], 101 kPa
Details | x2 = 0.1235 | x2 = 0.2408 | x2 = 0.3521 | x2 = 0.4583 | x2 = 0.5592 | x2 = 0.6554 | x2 = 0.7475 | x2 = 0.8352 | x2 = 0.9193
293.15 K | 0.4747 | 0.4613 | 0.4659 | 0.4672 | 0.4798 | 0.4974 | 0.5114 | 0.5331 | 0.5636
298.15 K | 0.4464 | 0.4356 | 0.44 | 0.4397 | 0.4483 | 0.4637 | 0.4815 | 0.5015 | 0.5303
303.15 K | 0.4224 | 0.4116 | 0.4159 | 0.4143 | 0.4231 | 0.4353 | 0.4517 | 0.4719 | 0.5004
313.15 K | 0.3788 | 0.3706 | 0.373 | 0.3699 | 0.3779 | 0.3929 | 0.4049 | 0.4201 | 0.4475
323.15 K | 0.3424 | 0.3338 | 0.3339 | 0.3344 | 0.3399 | 0.3487 | 0.3616 | 0.376 | 0.3958

C=C(C)[C@@H]1CC=C(C)CC1 + COC(C)(C)C
298.15 K, 101.33 kPa
Details | viscosity [mPa·s]
x2 = 0.0694 | 0.807
x2 = 0.1591 | 0.755
x2 = 0.257 | 0.7
x2 = 0.3599 | 0.641
x2 = 0.491 | 0.572
x2 = 0.6599 | 0.486
x2 = 0.7344 | 0.449
x2 = 0.8017 | 0.418
x2 = 0.8714 | 0.386
x2 = 0.9373 | 0.356
x2 = 0.9672 | 0.344

CCC(C)N (stereo not given) + COCCO
308.15 K, 101 kPa
Details | viscosity [mPa·s]
x2 = 0.1256 | 0.5105
x2 = 0.2443 | 0.6223
x2 = 0.3566 | 0.7355
x2 = 0.463 | 0.8498
x2 = 0.564 | 0.9507
x2 = 0.6599 | 1.015
x2 = 0.7511 | 1.066
x2 = 0.838 | 1.121
x2 = 0.9209 | 1.175

CCOCC + COCCO
298.15 K, 101 kPa
Details | viscosity [mPa·s]
x2 = 0.0976 | 0.2661
x2 = 0.1958 | 0.307
x2 = 0.2944 | 0.363
x2 = 0.3936 | 0.4399
x2 = 0.4933 | 0.5713
x2 = 0.5936 | 0.6782
x2 = 0.6944 | 0.8546
x2 = 0.7957 | 1.065
x2 = 0.8976 | 1.33

O=C1CCCCC1 + COCCO
298.15 K, 101 kPa
Details | viscosity [mPa·s]
x1 = 0.0793 | 1.432
x1 = 0.1624 | 1.369
x1 = 0.2494 | 1.33
x1 = 0.3408 | 1.325
x1 = 0.4367 | 1.33
x1 = 0.5377 | 1.354
x1 = 0.644 | 1.402
x1 = 0.7562 | 1.504
x1 = 0.8746 | 1.665
